Here are results for one compound from patent publication US11759471B2, “Modified release pharmaceutical composition and method for the treatment of mental disorders” (MEDICAL AND PHARMACEUTICAL INDUSTRY TECHNOLOGY AND …, priority 2019, dated 2023).

A short description of series [1]: In vitro dissolution test, USP Apparatus 2 (paddle). The class given is physicochemical. Particulars: FIG. 1, 3 mg paliperidone in raw form. The procedure: In vitro dissolution test was conducted in a USP Apparatus 2 (paddle) at 37±0.5° C., 50 rpm, in a solution having 750 mL of 0.1 N HCl and 1000 mL of pH 6.8 buffer
FIG. 1 discloses the dissolution release amount for 25 mg quetiapine in tablet of reference listed drug, 3 mg paliperidone in raw form.

Series [2] can be described thus: Dissolution of methacrylic acid coated samples in pH1.2 solvent. Type of series: physicochemical. To be noted: methacrylic acid coated samples with different encapsulation efficiency. The procedure:
Further use carried out with different encapsulation efficiency of experiments, and the samples with different encapsulation efficiency were test pH1.2 solvent dissolve. At the same time, it can be known that the results of the dissolution rate of paliperidone within 2 hours is not more than 10%. The present invention can be achieved effect of delayed release of paliperidone.

The conditions of series [3]: as measured by blood concentration; cited from earlier work.

`Cc1nc2n(c(=O)c1CCN1CCC(c3noc4cc(F)ccc34)CC1)CCCC2O` (stereo not shown) [paliperidone]: the “dissolution amount of paliperidone after pH change” value in series [1] (after 120 minutes, pH increased from 1.2 to 6.8, slightly decreased) is recorded as “above 100%”. For the same compound, the “dissolution amount of paliperidone” value in series [1] (less than 10 minutes, then maintained, pH 1.2) was “above 100%”. For the same compound, the “dissolution rate of paliperidone within 2 hours” value in series [2] is given as “not more than 10%”. In series [3], the “half-life in patients' blood” value was 20 to 28 h.
